Reference: US20240374797A1, “SYSTEM AND METHOD FOR EXTRACORPOREAL BLOOD TREATMENT” (Gambro Lundia AB, priority 2020, published 2024)

What was measured:
Assay type in all cases: cell-based, human
glioma cell line A172 = test: Example 2: CellTiter-Glo readout of cell numbers, ketones added to Medium A-C; settings: for growth, repeat experiments 2-6 (inconsistent results): ketone added separately (16 mM BOHB or 8 mM Acac), FIG. 14; for number of cells compared to 8 mM LiCl control: 8 mM Acac
Experimental: (§1) To study the effect of a nutrient restricted ketogenic environment on cancer cell growth in vitro, three different cell culture media were formulated. Medium A was full RPMI1640 medium that the cell lines routinely are cultured in. Medium B was used as an approximation of the conditions found in normal human serum. The levels of glucose, glutamine, serine, glycine and arginine were adjusted to match normal physiological levels found in human serum. These nutrients were selected based on their reported use as energy source and effects on cancer cell metabolic state. Medium C was used to emulate the ketogenic nutrient restricted Cancer Dialysis condition. Here, the levels of the selected nutrients were reduced to half of the physiological levels in Medium B, and the ketone body BOHB was added.
(§2) Human cancer cell lines are routinely established and cultured at atmospheric oxygen levels (21% O2), yet, the physiological oxygen levels in tissue is considerably lower and varies from 3-13% [Ward, Biochim Biophys Acta 2008; 1777:1-14. Within the tumor microenvironment, the fast growth rate of cancer cells combined with an often malformed and defective vasculature often results in hypoxic regions with oxygen levels ranging from 0-5%. Given the effects of oxygen levels on energy metabolism [Xie et al., J Biol Chem 2017; 292:16825-16832], and to further mimic the physiological conditions in vivo, the growth of the cancer cell lines in Medium A, B and C was studied at both ambient, 21% O2, and at the more physiological 5% O2.
(§3) Cells were maintained in RPMI-1640 medium (31870-025 GIBCO) with the addition of 10% serum, 200 mM L-glutamine and 1% penicillin-streptomycin (PEST) in humidified chambers at 37° C. and 5% CO2. For hypoxic conditions (5% O2), cells were maintained in a Galaxy 14 S CO2 incubator (Eppendorf) where N2 was used to adjust the O2 level to 5%.
(§4) Medium A: RPMI1640 (31870-025, GIBCO) with the addition of 1% PEST, 200 mM L-glutamine and 10% dialyzed serum. Dialyzed serum was used to reduce the amounts of small molecules such as amino acids.
(§5) Medium B and C were prepared from RPMI1640 modified medium powder without L-glutamine, glucose and amino acids (R9010-01, US Biological Life Sciences). For 1 L medium, 7.4 g powder was dissolved in 900 ml sterile water without heating and 2 g sodium bicarbonate was added. Amino acids listed in Table 5 were added to the same concentration as in full RPMI1640 medium (Table 5). After all additions, the medium was sterilized by filtering through 0.22 um membranes and divided into two bottles.
(§6) In Medium B, to mimic physiological conditions, the levels of glutamine, serine, glycine, arginine and glucose were set to the median of measured levels in human serum, based on data from the Mayo Clinic Laboratories (https://www.mayocliniclabs.com/test-catalog/Clinical+and+Interpretive/9265).
(§7) To model Cancer Dialysis conditions in Medium C, the levels of these nutrients were reduced to 50% of the physiological levels. As for Medium A, 1% PEST and 10% dialyzed serum were added to Medium B and C. Sodium pyruvate, that is a common addition in cell culture medium, was not present in any of the used media.
(§8) Stock solutions of DL-β-Hydroxybutyric acid sodium salt (H6501, Sigma Aldrich) and Lithium Acetoacetate (A8509, Sigma Aldrich) were prepared in water, sterile filtered, aliquoted and stored at −20° C. Lithium Chloride (L7026, Sigma Aldrich) was used as a control for the addition of Lithium in the Li-Acac.
(§9) CellTiter-Glo Luminescent cell viability assay (Promega) was used as a readout of cell numbers according to the manufacturers' instructions. In experiments shown in FIG. 12-13, double plates were seeded and treated. One set of plates was used for collection of medium for lactate measurement (see below) and the CellTiterGlo-assay. The other set of plates was frozen at −80° C. at the end of the experiment. […]

glioma cell line U118MG = test: as above; settings: for growth, repeat experiments 2-6 (inconsistent results): ketone added separately (16 mM BOHB or 8 mM Acac), FIG. 15; for number of cells compared to 8 mM LiCl control: 8 mM Acac
Experimental: as §1, §2, §3, §4, §5, §6, §7, §8, §9

[1] = test system: RCC4 renal carcinoma cell line; test: Example 2: CellTiter-Glo readout of cell numbers in Medium A-C; settings: high levels of BOHB or combination of BOHB and Acac, FIG. 16
Experimental: as §1, with “Here, the levels of the selected nutrients were reduced to half of the physiological levels in Medium B, and the ketone body BOHB was added.” left out
All cell lines were purchased from ATCC (ATCC, LGC standards) except for RCC4 that was from Sigma-Aldrich (Merck). […] Optimal seeding density was determined for each cell line in 96-well plates cultured for 3 days in standard cell culture medium. […]
In Medium B, to mimic physiological conditions, the levels of glutamine, serine, glycine, arginine and glucose were set to the median of measured levels in human serum, based on data from the Mayo Clinic Laboratories (https://www.mayocliniclabs.com/test-catalog/Clinical+and+Interpretive/9265). […]
CellTiter-Glo Luminescent cell viability assay (Promega) was used as a readout of cell numbers according to the manufacturers' instructions. […]

A172 (glioblastoma) = test: Study 2: CellTiter-Glo cell viability, DMEM without sodium pyruvate; settings: increase in BOHB concentration (0, 4, 12 mM), 3 d, FIG. 7
Experimental: (§10) Cell lines established from human colon carcinoma (HCT15, NCI-H508 and COLO205), renal cell carcinoma (769-P, 786-O and RCC4) and glioblastoma (LN-18, A-172 and U-118 MG) were selected for the analysis. All cell lines were obtained from American Type Culture Collection (ATCC, LGC standards, UK) except for RCC4 and HCT15 that was purchased from Sigma-Aldrich (Merck, Germany). In addition, primary human renal cell carcinoma (RCC) cells isolated from patient nephrectomies were included in the study. […]
(§11) Optimal seeding density was determined for each cell line in 96 well plates according to the “Protocol for optimizing cell seeding densities to ensure Log-phase growth”. […] Cover the plate. • Incubate the plate overnight at 37° C., 5% CO2. • Add 50 μL of fresh media to the plate wells to achieve a final volume of 200 μL and incubate for 72 h at 37° C., 5% CO2. • Measure viability using Cell Titer Glo assay according to manufacturer's protocol. • Plot log cell number against luminescence intensity to identify the concentration of cells at which log growth is achieved.
(§12) CellTiter-Glo Luminescent cell viability assay (Promega) was used as a readout of viability.
(§13) For each cell line, optimal number of cells as determined above were seeded into 96-well plates on day 0. […]

[2] = test system: RCC4 (renal cell carcinoma); test: as above; settings: increase in BOHB concentration (0, 4, 12 mM), 3 d, FIG. 7
Experimental: as §10, §11, §12, §13

[3] = Medium C, 16 mM BOHB, at both 21 and 5% O2
[4] = Medium A, both normoxia and hypoxia

Row | Compound | growth inhibitory effect (glioma cell line A172; Medium A, 16 mM BOHB alone, both normoxia and hypoxia, FIG. 12) | number of cells, % of the amount in Medium B without BOHB (glioma cell line A172; Medium B, hypoxic (5% O2), BOHB added (16 mM)) | number of cells, % compared to C-medium without BOHB (glioma cell line A172; [3]) | growth, repeat experiments 2-6 (inconsistent results) (glioma cell line A172; Medium C) | growth inhibitory effect (glioma cell line U118MG; Medium A, 16 mM BOHB alone, both normoxia and hypoxia, FIG. 13) | number of cells, % compared to C-medium without BOHB (glioma cell line U118MG; [3]) | growth, repeat experiments 2-6 (inconsistent results) (glioma cell line U118MG; Medium C) | increased sensitivity to ketones in nutrient restricted Medium C [1] | proliferation of cells (A172 (glioblastoma)) | proliferation of cells [2] | number of cells compared to 8 mM LiCl control (glioma cell line A172; [4]) | number of cells compared to 8 mM LiCl control (glioma cell line A172; Medium B, 5% O2) | number of cells compared to 8 mM LiCl control (glioma cell line A172; Medium B, 21% O2) | amounts of cells compared to 8 mM LiCl control (glioma cell line A172; Medium C, 8 mM Acac alone) | number of cells compared to 8 mM LiCl control (glioma cell line U118MG; [4]) | number of cells compared to 8 mM LiCl control (glioma cell line U118MG; Medium B, 5% O2) | number of cells compared to 8 mM LiCl control (glioma cell line U118MG; Medium B, 21% O2) | amounts of cells compared to 8 mM LiCl control (glioma cell line U118MG; Medium C, 8 mM Acac alone)
1 | CC(O)CC(=O)[O-].[Na+] (racemic) [BOHB, DL-β-Hydroxybutyric acid sodium salt] | no growth inhibitory effect | approximately 70% | around 30% | trend of reduced growth | no growth inhibitory effect | around 30% | trend of reduced growth | not found | suppresses the proliferation of cells | suppresses the proliferation of cells | – | – | – | – | – | – | – | –
2 | CC(=O)CC(=O)[O-].[Li+] [Acac, Lithium Acetoacetate] | – | – | – | trend of reduced growth | – | – | trend of reduced growth | – | – | – | did not reduce the number of cells further | only at 21% O2 | reduced the number of cells significantly | did not significantly reduce the amounts of cells | did not reduce the number of cells further | only at 21% O2 | reduced the number of cells significantly | did not significantly reduce the amounts of cells
